Data on 23 compounds can be found in patent publication US12486284B2, “Ubiquitin-specific protease inhibitor and preparation method therefor and use thereof” (CHASER THERAPEUTICS, INC., priority 2019, dated 2025).

Like-named read-outs stand apart in the source and are kept apart here. Some results are limits rather than exact numbers.

In one test the target is T1, USP25 (Homo sapiens, UniProt Q9UHP3).
T1 construct: purchased R&D Systems
T1 sequence (Q9UHP3 1-1055): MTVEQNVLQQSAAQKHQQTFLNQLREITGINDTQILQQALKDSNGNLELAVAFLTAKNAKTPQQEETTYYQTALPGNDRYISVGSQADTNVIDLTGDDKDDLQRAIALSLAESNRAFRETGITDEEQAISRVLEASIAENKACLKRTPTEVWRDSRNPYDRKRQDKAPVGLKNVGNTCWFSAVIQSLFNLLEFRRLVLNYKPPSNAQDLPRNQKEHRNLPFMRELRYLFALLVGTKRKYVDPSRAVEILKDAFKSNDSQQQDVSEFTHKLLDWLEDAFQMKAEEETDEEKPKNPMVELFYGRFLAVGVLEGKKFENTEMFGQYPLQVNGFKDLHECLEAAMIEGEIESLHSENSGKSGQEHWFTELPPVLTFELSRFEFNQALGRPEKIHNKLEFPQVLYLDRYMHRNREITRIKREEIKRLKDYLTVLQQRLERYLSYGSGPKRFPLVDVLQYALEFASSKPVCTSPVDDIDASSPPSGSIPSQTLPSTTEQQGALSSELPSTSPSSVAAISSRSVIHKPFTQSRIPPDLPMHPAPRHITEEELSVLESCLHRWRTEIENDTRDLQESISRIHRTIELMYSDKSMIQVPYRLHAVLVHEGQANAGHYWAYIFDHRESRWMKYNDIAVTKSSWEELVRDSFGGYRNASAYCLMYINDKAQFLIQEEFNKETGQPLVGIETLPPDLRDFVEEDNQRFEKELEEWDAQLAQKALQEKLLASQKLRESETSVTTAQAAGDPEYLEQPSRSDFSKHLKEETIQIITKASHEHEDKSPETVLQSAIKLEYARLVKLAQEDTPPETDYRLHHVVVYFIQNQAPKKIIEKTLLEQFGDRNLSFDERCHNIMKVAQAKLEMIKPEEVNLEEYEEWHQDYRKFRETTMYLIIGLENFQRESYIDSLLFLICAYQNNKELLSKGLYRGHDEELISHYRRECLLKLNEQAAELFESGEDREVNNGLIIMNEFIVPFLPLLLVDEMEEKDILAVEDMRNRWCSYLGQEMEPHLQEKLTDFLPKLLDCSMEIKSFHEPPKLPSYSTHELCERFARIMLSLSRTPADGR
In words: USP25 activity measured using ubiquitin-rhodamine 110 method. It counts as biochemical. As to conditions: for IC50: purified USP25 15 nM, ubiquitin-rhodamine 110 125 nM, 30 min preincubation; for IC50(F)/IC50(E) USP25: ratio of IC50 of related 3-NH2 compound (F) to IC50 of 3-NHMe compound disclosed herein (E). The essentials: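 Compound preincubated 30 min at room temperature with USP25 (15 nM final) in 20 mM Tris-HCl pH 8.0, 2 mM CaCl2, 3 mM BME, 0.01% Prionix, 0.01% Triton X-100, ≤0.5% DMSO. Ubiquitin-rhodamine 110 (125 nM) then added; fluorescence (ex 485/em 535 nm) read immediately. IC50 from % inhibition across concentrations.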

In another test the target is T2, USP28 (Homo sapiens, UniProt Q96RU2).
T2 construct: purchased R&D Systems
T2 sequence (Q96RU2 1-1077): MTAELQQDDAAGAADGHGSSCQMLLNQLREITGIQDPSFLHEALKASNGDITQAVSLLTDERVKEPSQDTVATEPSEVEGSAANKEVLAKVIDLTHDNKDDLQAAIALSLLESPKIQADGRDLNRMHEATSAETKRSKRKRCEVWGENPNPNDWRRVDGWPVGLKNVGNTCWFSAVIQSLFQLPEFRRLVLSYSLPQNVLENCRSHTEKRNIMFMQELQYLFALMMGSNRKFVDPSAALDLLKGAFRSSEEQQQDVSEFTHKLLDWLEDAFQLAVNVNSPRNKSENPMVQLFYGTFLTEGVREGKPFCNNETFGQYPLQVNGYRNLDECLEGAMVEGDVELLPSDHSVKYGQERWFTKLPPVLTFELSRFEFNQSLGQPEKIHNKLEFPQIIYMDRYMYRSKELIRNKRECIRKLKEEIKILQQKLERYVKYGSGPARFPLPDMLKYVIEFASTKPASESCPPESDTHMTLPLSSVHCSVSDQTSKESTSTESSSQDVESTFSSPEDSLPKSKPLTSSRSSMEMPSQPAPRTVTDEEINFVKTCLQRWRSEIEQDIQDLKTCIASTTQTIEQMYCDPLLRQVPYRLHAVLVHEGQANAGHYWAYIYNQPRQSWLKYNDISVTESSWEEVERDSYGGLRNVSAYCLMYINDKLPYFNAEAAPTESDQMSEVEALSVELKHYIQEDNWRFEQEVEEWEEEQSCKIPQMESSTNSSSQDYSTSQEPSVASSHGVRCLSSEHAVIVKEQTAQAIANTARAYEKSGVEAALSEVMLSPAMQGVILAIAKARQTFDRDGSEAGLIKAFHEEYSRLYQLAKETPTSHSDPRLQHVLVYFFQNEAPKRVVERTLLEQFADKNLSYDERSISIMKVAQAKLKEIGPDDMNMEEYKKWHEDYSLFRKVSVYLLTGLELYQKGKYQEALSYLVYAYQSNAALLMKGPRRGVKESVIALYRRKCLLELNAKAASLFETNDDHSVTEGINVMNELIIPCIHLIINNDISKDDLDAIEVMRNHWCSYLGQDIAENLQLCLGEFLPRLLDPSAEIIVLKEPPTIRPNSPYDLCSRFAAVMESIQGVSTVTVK
Description: USP28 activity measured using ubiquitin-rhodamine 110 method. It counts as biochemical. As to conditions: for IC50: purified USP28 4 nM, ubiquitin-rhodamine 110 125 nM, 30 min preincubation; for IC50(F)/IC50(E) USP28: ratio of IC50 of related 3-NH2 compound (F) to IC50 of 3-NHMe compound disclosed herein (E). The essentials: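 Purified USP28 (4 nM final) preincubated with compounds 30 min at room temperature in Tris-HCl pH 8.0 buffer with CaCl2, BME, Prionix and Triton X-100 (DMSO ≤0.5%). Ubiquitin-rhodamine 110 added to 125 nM; fluorescence (ex 485/em 535 nm) read immediately, inhibition versus DMSO control used to calculate IC50.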

Setting [1] is: read-out: Inhibitory activity against USP25 (IC50).
The mark [2] stands for this setting: Inhibitory activity against USP28 (IC50).
[3] abbreviates: Inhibitory activity against USP25 (IC50).
[4] abbreviates: read-out: Inhibitory activity against USP28 (IC50).

With `CNc1c(C(=O)NCCc2ccc(N3C[C@H]4CC[C@@H](C3)N4)cc2)sc2nc(C)cnc12` [Compound I-71], the values for the IC50 at USP25 (setting [1]) and on USP28 (setting [2]) were 5 to 10 µM and less than 0.1 µM, respectively.

Consider `CCc1cnc2c(NC)c(C(=O)NCCc3ccc(N4C[C@H]5CC[C@@H](C4)N5)cc3)sc2n1` [Compound I-72], for which the concentration for half-maximal inhibition (IC50) at USP25 (setting [1]) was 0.1 to 1 µM; at USP28 (setting [2]), less than 0.1 µM.

On to `CNc1c(C(=O)NCCc2ccc(N3CC4CCC(C3)N4)cc2)sc2nc(C(C)C)cnc12` [Compound I-73], for which the IC50 is 0.1 to 1 µM on USP25 (setting [1]) and less than 0.1 µM against USP28 (setting [2]).

For the compound `CCc1nc2sc(C(=O)NCCc3ccc(N4C[C@H]5CC[C@@H](C4)N5)cc3)c(NC)c2nc1C` [Compound I-74], the IC50 against USP25 (setting [3]) and on USP28 (setting [2]) was less than 0.1 µM in each case.

For `CNc1c(C(=O)NCCc2ccc(N3C[C@H]4CC[C@@H](C3)N4)c(Cl)c2)sc2nc(C)cnc12` [Compound I-75], the half-maximal inhibitory concentration (IC50) on USP25 (setting [3]) and against USP28 (setting [2]) was less than 0.1 µM throughout.

In the case of `CNc1c(C(=O)NCCc2ccc(N3C[C@H]4CC[C@@H](C3)N4)c(F)c2)sc2nc(C)cnc12` [Compound I-76], the IC50 at USP25 (setting [3]) and on USP28 (setting [2]) was less than 0.1 µM in each case. The “IC50(F)/IC50(E) USP25” value on USP25 is more than 20. Besides, the “IC50(F)/IC50(E) USP28” value on USP28 worked out at 33.3.

`CNc1c(C(=O)NCCc2ccc(N3C[C@H]4CC[C@@H](C3)N4)cc2F)sc2nc(C)cnc12` [Compound I-77]: the IC50 on USP25 (setting [3]) and against USP28 (setting [2]) was less than 0.1 µM in each case.

On to `CNc1c(C(=O)NCCc2cc(F)c(N3C[C@H]4CC[C@@H](C3)N4)cc2F)sc2nc(C)cnc12` [Compound I-78], for which the IC50 against USP25 (setting [3]) and at USP28 (setting [2]) was less than 0.1 µM each time.

Take `CNc1c(C(=O)NC[C@H](C)c2cc(F)c(N3C[C@H]4CC[C@@H](C3)N4)cc2F)sc2nc(C)cnc12` [Compound I-79]: the figures for the half-inhibitory concentration (IC50) at USP25 (setting [1]) and against USP28 (setting [2]) were 0.1 to 1 µM and less than 0.1 µM, respectively.

Regarding `CNc1c(C(=O)NCCc2ccc(N3C[C@H]4CC[C@@H](C3)N4)cc2)sc2nc(C#N)ccc12` [Compound I-80], the IC50 at USP25 (setting [1]) and at USP28 (setting [4]) was 1 to 5 µM each time.

`CNc1c(C(=O)NCCc2ccc(N3C[C@H]4CC[C@@H](C3)N4)cc2F)sc2nc(Cl)cnc12` [Compound I-81]: the results for the IC50 at USP25 (setting [1]) and on USP28 (setting [4]) were more than 10 µM and 1 to 5 µM, respectively.

Turning to `CNc1c(C(=O)NCCc2ccc(N3C[C@H]4CC[C@@H](C3)N4)cc2)sc2nc(Cl)ccc12` [Compound I-82], the IC50 at USP25 (setting [1]) and on USP28 (setting [4]) was 0.1 to 1 µM in each case.

As to `CNc1c(C(=O)N[C@@H]2Cc3ccc(N4CC5CCC(C4)N5)cc3C2)sc2nc(C)ccc12` [Compound I-83], the 50% inhibitory concentration (IC50) is 5 to 10 µM at USP25 (setting [1]) and 0.1 to 1 µM on USP28 (setting [4]).

Regarding `CNc1c(C(=O)N[C@H]2Cc3ccc(N4CC5CCC(C4)N5)cc3C2)sc2nc(C)ccc12` [Compound I-84], the IC50 at USP25 (setting [1]) is more than 10 µM; at USP28 (setting [4]), 1 to 5 µM.

As for `CNc1c(C(=O)N[C@H]2COc3cc(N4CC5CCC(C4)N5)ccc3C2)sc2nc(C)ccc12` [Compound I-85], the IC50 on USP25 (setting [3]) and against USP28 (setting [2]) was less than 0.1 µM in each case. The “IC50(F)/IC50(E) USP25” value on USP25 is reported as more than 8. For the same compound, the “IC50(F)/IC50(E) USP28” value at USP28 is recorded as 8.8.

Turning to `CNc1c(C(=O)NC2COc3cc(N4CC5CCC(C4)N5)ccc3C2)sc2nc(C)ccc12` (stereo not shown) [Compound I-86], the half-maximal inhibitory concentration (IC50) at USP25 (setting [1]) was 1 to 5 µM; on USP28 (setting [4]), 0.1 to 1 µM.

Consider `CNc1c(C(=O)NC2CCc3cc(N4CC5CCC(C4)N5)ccc3C2)sc2nc(C)ccc12` (stereo not shown) [Compound I-89], for which the figures for the IC50 on USP25 (setting [1]) and on USP28 (setting [4]) were 5 to 10 µM and 1 to 5 µM, respectively.

As for `CNc1c(C(=O)N[C@H]2CCc3cc(N4CC5CCC(C4)N5)ccc3C2)sc2nc(C)ccc12` [Compound I-90], the half-maximal inhibitory concentration (IC50) is 0.1 to 1 µM at USP25 (setting [1]) and less than 0.1 µM at USP28 (setting [2]). The “IC50(F)/IC50(E) USP25” value at USP25 was more than 6. On USP28, the “IC50(F)/IC50(E) USP28” value was 5.5.

Consider `CCc1ccc2c(NC)c(C(=O)N[C@H]3COc4cc(N5CC6CCC(C5)N6)ccc4C3)sc2n1` [Compound I-91], for which the IC50 on USP25 (setting [3]) and against USP28 (setting [2]) was less than 0.1 µM throughout.

As for `CNc1c(C(=O)NCC(C)(C)c2ccc(N3CC4CCC(C3)N4)cc2F)sc2nc(C)ccc12` [Compound I-92], the half-inhibitory concentration (IC50) at USP25 (setting [1]) was more than 10 µM; at USP28 (setting [4]) it was 1 to 5 µM.

Take `CNc1c(C(=O)NCCc2ccc(N3C[C@H]4CC[C@@H](C3)N4)cc2)sc2nc(N)ccc12` [Compound I-93, N-4-(3,8-diazabicyclo[3.2.1]octan-3-yl)phenethyl-6-amino-3-methylaminothiophene[2,3-b]pyridine-2-carboxamide]: the IC50 at USP25 (setting [1]) and on USP28 (setting [4]) was 0.1 to 1 µM each time.

Take `CNc1ccc2c(NC)c(C(=O)NCCc3ccc(N4C[C@H]5CC[C@@H](C4)N5)cc3)sc2n1` [Compound I-94]: the half-maximal inhibitory concentration (IC50) is more than 10 µM on USP25 (setting [1]) and 0.1 to 1 µM at USP28 (setting [4]).

For `CNc1c(C(=O)NCCc2ccc(N3C[C@H]4CC[C@@H](C3)N4)cc2)sc2nc(N)cc(C(F)F)c12` [Compound I-95], the half-inhibitory concentration (IC50) against USP25 (setting [3]) and on USP28 (setting [2]) was less than 0.1 µM in each case.

A word on the IC50: it is the concentration at which inhibition is half-maximal.
